Results published in patent US11274083B2, “Substituted thiophenyl uracils, salts thereof and the use thereof as herbicidal agents” (Syngenta Crop Protection AG, priority 2017, dated 2022).

Legend:
Assay type in all cases: in vivo
Zea mays = assay: Crop compatibility post-emergence, greenhouse pot test; conditions: application rate 5 g/ha
Description: (§1) Seeds of mono- and dicotyledonous weed plants and crop plants were laid out in sandy loam soil in plastic or wood-fiber pots, covered with soil and grown under controlled growth conditions in a greenhouse. 2 to 3 weeks after sowing, the trial plants were treated at the one-leaf stage. The compounds of the invention formulated in the form of wettable powders (WP) or as emulsion concentrates (EC) were then sprayed onto the green parts of the plant as an aqueous suspension or emulsion with addition of 0.5% additive at a water application rate equivalent to 600 L/ha. After the trial plants had stood for about 3 weeks in the greenhouse, under optimal growth conditions, the effect of the preparations was scored visually by comparison with untreated controls. For example, 100% efficacy=plants have died, 0% efficacy=like control plants.
(§2) Crop plant compatibilities were also scored correspondingly.
(§3) The effects observed are reported here on selected crop plants by comparison, with the untreated controls (values in %).

Triticum aestivum = assay: as above
Description: as §1, §2, §3

Matricaria inodora [1] = assay: Herbicidal action pre-emergence, greenhouse pot test
Excerpt: Seeds of mono- and dicotyledonous weeds and crop plants were laid out in plastic or organic plant pots and covered with soil. The compounds of the invention formulated in the form of wettable powders (WP) or as emulsion concentrates (EC) were then applied to the surface of the covering soil as an aqueous suspension or emulsion with addition of 0.5% additive at a water application rate equivalent to 600 L/ha. After the treatment, the pots were placed in a greenhouse and kept under good growth conditions for the test plants. After about 3 weeks, the efficacy of the preparations was scored visually as a percentage by comparison with untreated controls. For example, 100% efficacy=plants have died. 0% efficacy=like control plants. Tables B1 to B17 below show the efficacies of selected compounds of the general formula (I) […] aforementioned trial method.

Abutilon theophrasti [2] = assay: as above
Excerpt: (§4) Seeds of mono- and dicotyledonous weeds and crop plants were laid out in plastic or organic plant pots and covered with soil. The compounds of the invention formulated in the form of wettable powders (WP) or as emulsion concentrates (EC) were then applied to the surface of the covering soil as an aqueous suspension or emulsion with addition of 0.5% additive at a water application rate equivalent to 600 L/ha. After the treatment, the pots were placed in a greenhouse and kept under good growth conditions for the test plants. After about 3 weeks, the efficacy of the preparations was scored visually as a percentage by comparison with untreated controls. For example, 100% efficacy=plants have died. 0% efficacy=like control plants. Tables B1 to B17 below show the efficacies of selected compounds of the general formula (I) according to tables I.1 to I.50 on various harmful plants and an application rate corresponding to 320 g/ha or lower that were obtained by the aforementioned trial method.

Hordeum murinum = assay: as above; conditions: application rate 320 g/ha
Excerpt: as §4

Lolium rigidum [3] = assay: as above
Excerpt: as §4

Amaranthus retroflexus [4] = assay: as above
Excerpt: as §4

Polygonum convolvulus [5] = assay: as above
Excerpt: as §4

Setaria viridis [6] = assay: as above
Excerpt: as §4

Echinochloa crus-galli [7] = assay: as above; conditions: application rate 320 g/ha
Excerpt: as §4

Alopecurus myosuroides [8] = assay: as above; conditions: application rate 320 g/ha
Excerpt: as §4

Stellaria media [9] = assay: as above
Excerpt: as §4

Veronica persica [10] = assay: as above
Excerpt: as §4

Viola tricolor [11] = assay: as above
Excerpt: as §4

Pharbitis purpurea [12] = assay: as above
Excerpt: as §4

Abutilon theophrasti [13] = assay: Herbicidal action post-emergence, greenhouse pot test; conditions: application rate 80 g/ha
Description: as §1, with “plants. Tables A1 to A16 below show the efficacies of selected compounds of the general formula (I) according to tables I.1 to I.50 on various harmful plants and an application rate corresponding to 80 g/ha or lower that were obtained by the aforementioned trial method.” for “plants.”

Lolium rigidum [14] = assay: as above; conditions: application rate 80 g/ha
Description: as §1, with “plants. Tables A1 to A16 below show the efficacies of selected compounds of the general formula (I) according to tables I.1 to I.50 on various harmful plants and an application rate corresponding to 80 g/ha or lower that were obtained by the aforementioned trial method.” for “plants.”

Matricaria inodora [15] = assay: as above; conditions: application rate 80 g/ha
Description: as §1, with “plants. Tables A1 to A16 below show the efficacies of selected compounds of the general formula (I) according to tables I.1 to I.50 on various harmful plants and an application rate corresponding to 80 g/ha or lower that were obtained by the aforementioned trial method.” for “plants.”

Amaranthus retroflexus [16] = assay: as above
Description: as §1, with “plants. Tables A1 to A16 below show the efficacies of selected compounds of the general formula (I) according to tables I.1 to I.50 on various harmful plants and an application rate corresponding to 80 g/ha or lower that were obtained by the aforementioned trial method.” for “plants.”

Polygonum convolvulus [17] = assay: as above; conditions: application rate 80 g/ha
Description: as §1, with “plants. Tables A1 to A16 below show the efficacies of selected compounds of the general formula (I) according to tables I.1 to I.50 on various harmful plants and an application rate corresponding to 80 g/ha or lower that were obtained by the aforementioned trial method.” for “plants.”

Setaria viridis [18] = assay: as above; conditions: application rate 80 g/ha
Description: as §1, with “plants. Tables A1 to A16 below show the efficacies of selected compounds of the general formula (I) according to tables I.1 to I.50 on various harmful plants and an application rate corresponding to 80 g/ha or lower that were obtained by the aforementioned trial method.” for “plants.”

Echinochloa crus-galli [19] = assay: as above; conditions: application rate 80 g/ha
Description: as §1, with “plants. Tables A1 to A16 below show the efficacies of selected compounds of the general formula (I) according to tables I.1 to I.50 on various harmful plants and an application rate corresponding to 80 g/ha or lower that were obtained by the aforementioned trial method.” for “plants.”

Stellaria media [20] = assay: as above; conditions: application rate 80 g/ha
Description: as §1, with “plants. Tables A1 to A16 below show the efficacies of selected compounds of the general formula (I) according to tables I.1 to I.50 on various harmful plants and an application rate corresponding to 80 g/ha or lower that were obtained by the aforementioned trial method.” for “plants.”

Veronica persica [21] = assay: as above; conditions: application rate 80 g/ha
Description: as §1, with “plants. Tables A1 to A16 below show the efficacies of selected compounds of the general formula (I) according to tables I.1 to I.50 on various harmful plants and an application rate corresponding to 80 g/ha or lower that were obtained by the aforementioned trial method.” for “plants.”

Viola tricolor [22] = assay: as above
Description: as §1, with “plants. Tables A1 to A16 below show the efficacies of selected compounds of the general formula (I) according to tables I.1 to I.50 on various harmful plants and an application rate corresponding to 80 g/ha or lower that were obtained by the aforementioned trial method.” for “plants.”

Pharbitis purpurea [23] = assay: as above; conditions: application rate 80 g/ha
Description: as §1, with “plants. Tables A1 to A16 below show the efficacies of selected compounds of the general formula (I) according to tables I.1 to I.50 on various harmful plants and an application rate corresponding to 80 g/ha or lower that were obtained by the aforementioned trial method.” for “plants.”

Avena fatua = assay: Herbicidal action pre-emergence, greenhouse pot test; conditions: application rate 320 g/ha
Excerpt: as §4

Alopecurus myosuroides [24] = assay: Herbicidal action post-emergence, greenhouse pot test; conditions: application rate 80 g/ha, scored visually after about 3 weeks vs untreated controls
Description: as §1, with “plants. Tables A1 to A16 below show the efficacies of selected compounds of the general formula (I) according to tables I.1 to I.50 on various harmful plants and an application rate corresponding to 80 g/ha or lower that were obtained by the aforementioned trial method.” for “plants.”

CC(Sc1cc(-n2c(=O)cc(C(F)(F)F)n(C)c2=O)c(F)cc1Cl)C(=O)OCCC(=O)O (centres unmarked) [I.1-1]
90%: Hordeum murinum (Efficacy in %) (Hordeum murinum)
20%: Triticum aestivum (Efficacy in %) (Triticum aestivum; application rate 80 g/ha)
100%: Matricaria inodora (Efficacy in %) (Matricaria inodora [1]; application rate 320 g/ha) | Abutilon theophrasti (Efficacy in %) (Abutilon theophrasti [2]; application rate 320 g/ha) | Lolium rigidum (Efficacy in %) (Lolium rigidum [3]; application rate 320 g/ha) | Amaranthus retroflexus (Efficacy in %) (Amaranthus retroflexus [4]; application rate 20 g/ha) | Polygonum convolvulus (Efficacy in %) (Polygonum convolvulus [5]; application rate 320 g/ha) | Setaria viridis (Efficacy in %) (Setaria viridis [6]; application rate 320 g/ha) | Echinochloa crus-galli (Efficacy in %) (Echinochloa crus-galli [7]) | Alopecurus myosuroides (Efficacy in %) (Alopecurus myosuroides [8]) | Stellaria media (Efficacy in %) (Stellaria media [9]; application rate 320 g/ha) | Veronica persica (Efficacy in %) (Veronica persica [10]; application rate 320 g/ha) | Viola tricolor (Efficacy in %) (Viola tricolor [11]; application rate 320 g/ha) | Pharbitis purpurea (Efficacy in %) (Pharbitis purpurea [12]; application rate 320 g/ha) | Abutilon theophrasti (Efficacy in %) (Abutilon theophrasti [13]) | Matricaria inodora (Efficacy in %) (Matricaria inodora [15]) | Amaranthus retroflexus (Efficacy in %) (Amaranthus retroflexus [16]; application rate 20 g/ha) | Polygonum convolvulus (Efficacy in %) (Polygonum convolvulus [17]) | Setaria viridis (Efficacy in %) (Setaria viridis [18]) | Echinochloa crus-galli (Efficacy in %) (Echinochloa crus-galli [19]) | Stellaria media (Efficacy in %) (Stellaria media [20]) | Veronica persica (Efficacy in %) (Veronica persica [21]) | Viola tricolor (Efficacy in %) (Viola tricolor [22]; application rate 80 g/ha) | Pharbitis purpurea (Efficacy in %) (Pharbitis purpurea [23])
10%: Zea mays (Efficacy in %) (Zea mays)
80%: Lolium rigidum (Efficacy in %) (Lolium rigidum [14])

CCOC(=O)CC(C)OC(=O)C(C)Sc1cc(-n2c(=O)cc(C(F)(F)F)n(C)c2=O)c(F)cc1Cl (centres unmarked) [I.1-23]
20%: Triticum aestivum (Efficacy in %) (Triticum aestivum; application rate 20 g/ha)
100%: Matricaria inodora (Efficacy in %) (Matricaria inodora [1]; application rate 800 g/ha) | Avena fatua (Efficacy in %) (Avena fatua) | Abutilon theophrasti (Efficacy in %) (Abutilon theophrasti [2]; application rate 80 g/ha) | Hordeum murinum (Efficacy in %) (Hordeum murinum) | Lolium rigidum (Efficacy in %) (Lolium rigidum [3]; application rate 80 g/ha) | Amaranthus retroflexus (Efficacy in %) (Amaranthus retroflexus [4]; application rate 80 g/ha) | Polygonum convolvulus (Efficacy in %) (Polygonum convolvulus [5]; application rate 80 g/ha) | Setaria viridis (Efficacy in %) (Setaria viridis [6]; application rate 80 g/ha) | Echinochloa crus-galli (Efficacy in %) (Echinochloa crus-galli [7]) | Alopecurus myosuroides (Efficacy in %) (Alopecurus myosuroides [8]) | Stellaria media (Efficacy in %) (Stellaria media [9]; application rate 80 g/ha) | Veronica persica (Efficacy in %) (Veronica persica [10]; application rate 80 g/ha) | Viola tricolor (Efficacy in %) (Viola tricolor [11]; application rate 80 g/ha) | Pharbitis purpurea (Efficacy in %) (Pharbitis purpurea [12]; application rate 80 g/ha) | Abutilon theophrasti (Efficacy in %) (Abutilon theophrasti [13]) | Matricaria inodora (Efficacy in %) (Matricaria inodora [15]) | Amaranthus retroflexus (Efficacy in %) (Amaranthus retroflexus [16]; application rate 80 g/ha) | Polygonum convolvulus (Efficacy in %) (Polygonum convolvulus [17]) | Setaria viridis (Efficacy in %) (Setaria viridis [18]) | Echinochloa crus-galli (Efficacy in %) (Echinochloa crus-galli [19]) | Stellaria media (Efficacy in %) (Stellaria media [20]) | Veronica persica (Efficacy in %) (Veronica persica [21]) | Viola tricolor (Efficacy in %) (Viola tricolor [22]; application rate 20 g/ha) | Pharbitis purpurea (Efficacy in %) (Pharbitis purpurea [23])
90%: Lolium rigidum (Efficacy in %) (Lolium rigidum [14]) | Alopecurus myosuroides (Efficacy in %) (Alopecurus myosuroides [24])
